The results in this text go back to article PMC5065719 (Biochemistry, 2013).

This experiment addresses IscU (Azotobacter vinelandii, UniProt O31270). The experiment is described as follows: UV/Vis absorption and visible CD during in vitro Fe-S cluster assembly. The experiment is classed as binding. The settings on record: anaerobic, IscS, Cys, DTT, cluster assembled in situ.

IscU, sequence (O31270 whole entry): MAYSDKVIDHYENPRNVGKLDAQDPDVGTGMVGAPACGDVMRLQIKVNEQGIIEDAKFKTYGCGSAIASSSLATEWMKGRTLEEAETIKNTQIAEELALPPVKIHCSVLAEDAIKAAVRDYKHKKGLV

With `[S]1[Fe][S][Fe]1` [[2Fe-2S] cluster], the “UV/Vis absorption and visible CD during in vitro Fe-S cluster assembly” value was “shows the formation of the [2Fe-2S] cluster as previously reported for IscU (A)”.
